Assay results from patent US12241094B2, “Phenazine degrading agents and related compositions, methods and systems for interfering with viability of bacteria” (priority 2016, dated 2025).
Where two headings read alike, the source gives them in different places. Marks after values point to notes of the source that are not given here.

Experiments:
[1] = system: Pa PA14 biofilm transcriptome; test: RNASeq transcriptome of biofilm cultures; format: cell-based, P. aeruginosa; conditions: 5 h
Method: Because 1-OH-PHZ induces iron starvation in A. fumigatus (Briard et al. (2015) Scientific Reports. 2015; 5), it was speculated that the abrogation of biofilm development in P. aeruginosa grown in the presence of either PodA or 1-OH-PHZox may be mediated by a response to Fe-limitation. To test this idea, changes to the transcriptome of Pa PA14 by RNASeq were assessed. After 5 h of incubation in the presence of PodA (1 μM), 1-OH-PHZ (200 μM) or PYO (200 μM), RNA was prepared from 1 ml of biofilm cultures (250 μl pooled from 4 static biofilm chambers) for analysis on an Illumina HiSeq 2500 sequencer at the Millard and Muriel Jacobs Genetics and Genomics Laboratory, as previously described (Babin et al. (2016) Proc Natl Acad Sci USA. 113(5):E597-E605; Kreamer et al. (2015) M Bio. 2015; 6(2):e02549. Epub 2015/02/26). This experiment was designed to identify genes that were likely to be specifically affected by PodA's transformation of PYO to 1-OH-PHZ under a condition that inhibited biofilm formation (FIG. 20A). As a reference for genes responsive to iron availability, these transcriptomes were compared to those previously found to respond to Fe(II) shock (Kreamer et al. (2015) M Bio. 2015; 6(2):e02549. Epub 2015/02/26).

PA14 [2] = test: Redox cycles over 7 days and support of survival (Table 1); format: cell-based, P. aeruginosa
[3] = oxidized form, values from references a, c, d; cited from earlier work
PA14 [4] = test: Reduction of redox-active compounds by PA14 (Table 1); format: cell-based, P. aeruginosa
[5] = Kidani 1958; cited from earlier work
P. aeruginosa biofilm [6] = test: Optical density of P. aeruginosa biofilm; format: cell-based; conditions: PodA vs inactive E154A; 1-OH-PHZ vs 1% DMSO
[7] = system: P. aeruginosa planktonic culture; test: Phenazines in planktonic P. aeruginosa cultures (HPLC); format: cell-based; conditions: 24 hours
From the text: Product was cut with DpnI to remove WT vector, phosphorylated with T4 polynucleotide kinase, and ligated to generate a circular mutant protein expression construct. For D72N and Y156F mutants, DNA fragments encoding the mutation were synthesized (Integrated DNA Technologies) and cloned into pET-20b(+) as for the wild type sequence. Enzymes for cloning were purchased from New England Biolabs. Constructs were transferred to E. coli BL21(DE3) for expression. All mutations were confirmed by Sanger sequencing (Laragen and Retrogen). When necessary, 100 μg mL^−1 carbenicillin was included in all growth media to maintain selection for the plasmid. To measure the effect of PodA30-162 on phenazine production in planktonically grown P. aeruginosa, cultures were grown overnight in 5 mL volumes of tryptic soy broth (TSB) or succinate minimal medium (arginine medium recipe from Glasser et al., 2014 with 40 mM sodium succinate in place of arginine) (3) in the presence 1 μg mL^−1 PodA30-162. Cells were removed by centrifugation and supernatants were analyzed by HPLC as previously described (9). See below for a description of biofilm growth of P. aeruginosa PA14. To induce protein expression, an overnight culture was inoculated 1/1000 in Terrific Broth (BD Difco). Cultures were grown in baffled Erlenmeyer flasks (1 L culture per 3 L flask) at 37° C. with 150 rpm agitation in a shaking incubator (Innova 44 shaking incubator, New Brunswick). After 3-4 hours, the temperature was changed to 16° C. and cultures were induced with 50 μM (final concentration) IPTG and left to incubate overnight. Cells were then pelleted by centrifugation, flash frozen in liquid N2, and stored at −80° C. for up to 1 month before protein purification.

P. aeruginosa biofilm [8] = test: Microcolony number and size in 5 hour biofilms on succinate minimal medium; format: cell-based; conditions: 100 μM 1-OHPHZ or 0.5 μg mL-1 PodA
From the text: FIGS. 24A-C show charts and images illustrating results of exemplary experiments showing that PodA and 1-OH-PHZ inhibit the early stages of P. aeruginosa biofilm formation on succinate minimal medium. […] Numbers are averages and SD from 8 biological replicates.

Pa PA14 biofilm = test: Biofilm biomass by DAPI intensity (Example 7); format: cell-based, P. aeruginosa
Method: In this example, to check for an effect of PodA or 1-OH-PHZ on biofilm development, Pa PA14 was grown in 8-well chambered microscope slides designed for biofilm imaging, as previously reported (Das et al. (2015) Sci Rep. 5:8398). Overnight cultures of Pa PA14 were diluted to a starting optical density of 0.25 and grown directly on the slides (volume of 250 μl per chamber). After 5 h incubation at 37° C., planktonic cells were rinsed from the slide and remaining cells were stained with DAPI. Biofilm biomass was quantified by DAPI intensity on a Leica confocal microscope, with LAS X software. Pa PA14 incubated in the presence of 1 μM PodA or 100 μM 1-OHPHZox had ˜50% the biofilm biomass of Pa PA14 alone (FIG. 20A).

S. oneidensis MR1 = conditions: 100 μM PYO vs absence of PYO; cited from earlier work
E. coli DH5α = conditions: 100 μM PYO vs absence of PYO; cited from earlier work
P. aeruginosa Δphz = conditions: 25 μM PYO; images from Ramos et al., 2010; cited from earlier work
[9] = PYO's hydroxyl group; cited from earlier work
S. aureus MN8 = conditions: 100 μM PYO vs absence of PYO; cited from earlier work
Pa PA14 biofilms = test: Tobramycin tolerance of Pa PA14 biofilms; format: cell-based, P. aeruginosa
Method: In varying the amount of added 1-OH-PHZox, it was observed a dose-dependent response: the greater the [1-OHPHZox], the greater the biofilm inhibition, yet, under these conditions, saturating at 200 μM (FIG. 20B). To set the stage for flow-cell experiments to explore PodA and 1-OH-PHZ effects on biofilm inhibition and biofilm dissolution, the time course for biofilm development was mapped for Pa PA14 constitutively expressing YFP under constant flow in a minimal medium (FIG. 20C) as previously described (Wang et al. (2011) J Bacteriol. 193(14):3606-17). In addition, an appropriate initial tobramycin concentration to use in Pa PA14 biofilm experiments was also identified to test the hypothesis that PodA or 1-OH-PHZ can sensitize biofilms to antibiotics: Pa PA14 biofilms tolerate 20 μg/ml, 10× the MIC for tobramycin for planktonic cultures, similar to what has been reported for biofilms of Pa PAO1 (Bjarnsholt et al. (2005) Microbiol-Sgm. 2005; 151:373-83).

[10] = Redox potential E0' (vs. NHE) of redox-active compounds; format: physicochemical; conditions: measured in aqueous solution at pH 7 in this study (footnote b)

In the case of `Oc1cccc2nc3ccccc3nc12` [1-OH-PHZ, 1-Hydroxyphenazine], the “upregulation of genes in iron responsive pathways” value ([1]; 200 μM) is reported as 2-10 fold, the “expression of small gene cluster incl. QapR regulon” value [1] is reported as “upregulated modestly” and the “# of Redox cycles over 7 days” value (PA14 [2]) is reported as 14. The “Support survival?” value (PA14 [2]) was “Yes”, the “E^0, (vs. NHE)” value [3] was −174^a mV and the “Reduction by PA14?” value (PA14 [4]) was “Yes”. For the same compound, the “log of the equilibrium constant βmlh of binding copper” value [5] was 8.68, the “optical density of biofilm” value (P. aeruginosa biofilm [6]) was “not significantly different” and the “production of PYO” value ([7]; minimal medium with succinate) was “negative impact”. For the same compound, the phenazine production ([7]; tryptic soy broth) was “changes to the concentrations of all four phenazines”, the microcolony diameter (P. aeruginosa biofilm [8]) was “does decrease” and the “number of microcolonies formed” value (P. aeruginosa biofilm [8]; vs inactive E154A) was “does not significantly affect”. For the same compound, the “biofilm biomass relative to Pa PA14 alone” value (Pa PA14 biofilm; 1 μM PodA or 100 μM 1-OHPHZox, 5 h at 37° C) was about 50%, the “biofilm formation compared to untreated control” value (Pa PA14 biofilm; PodA 1 μM, 1-OH-PHZ 100 μM, total DAPI staining) was “inhibit biofilm formation” and the “concentration at which biofilm inhibition saturates” value (Pa PA14 biofilm; dose-dependent response) was 200 µM.

In the case of `Cn1c2cccc(=O)c-2nc2ccccc21` [PYO, Pyocyanin], the “log(2) changes relative to untreated control, metal scavenging and starvation response genes (FIG. 21A)” value ([1]; PodA 1 μM, 1-OH-PHZ 200 μM, PYO 200 μM) is given as ~0 log(2), the colony growth (S. oneidensis MR1) is given as “decreased colony growth” and the “# of Redox cycles over 7 days” value (PA14 [2]) is given as 31. For the same compound, the “Support survival?” value (PA14 [2]) was “Yes”, the “E^0, (vs. NHE)” value [3] was −40^a mV and the “Reduction by PA14?” value (PA14 [4]) was “Yes”. The colony growth (E. coli DH5α) was “decreased colony growth”, the “biofilm production of Δphz” value (P. aeruginosa Δphz) was “restored” and the pKa [9] was about 5. For the same compound, the colony growth (S. aureus MN8) was “decreased colony growth”.

With `NC[C@H]1O[C@H](O[C@H]2[C@H](O)[C@@H](O[C@H]3O[C@H](CO)[C@@H](O)[C@H](N)[C@H]3O)[C@H](N)C[C@@H]2N)[C@H](N)C[C@@H]1O` [tobramycin] the “tobramycin concentration tolerated by biofilms” value (Pa PA14 biofilms) was 20 µg/mL and the “tolerated concentration relative to MIC for planktonic cultures” value (Pa PA14 biofilms) was 10 × the MIC.

For `O=C(O)Cc1cc(O)ccc1O` [Homogentisic acid (HMA), Homogentisic acid], the “# of Redox cycles over 7 days” value (PA14 [2]) was “No cycle”, the “Support survival?” value (PA14 [2]) was “No” and the “E^0, (vs. NHE)” value [10] was “+306^b mV”.

In the case of `CN(C)c1ccc2nc3ccc(=[N+](C)C)cc-3sc2c1` [Methylene blue (MB), Methylene blue], the “# of Redox cycles over 7 days” value (PA14 [2]) is listed as 3, the “Support survival?” value (PA14 [2]) is listed as “No” and the “E^0, (vs. NHE)” value [3] is listed as “+11 mV”. The “Reduction by PA14?” value (PA14 [4]) was “Yes” and the “E^0, (vs. NHE)” value [10] was 0 mV.
